One block for each compound: values may come before it.
Assays:
TTK = TTK (Homo sapiens (Human), UniProt P33981); assay: TTK enzyme assay (LanthaScreen Eu Kinase Binding); settings: arithmetic mean of two or more experiments; for IC50: read-out: TTK enz pIC50 (converted)
Experimental: The inhibitory activity of compounds against TTK was determined in a LanthaScreen® Eu Kinase Binding assay run by ThermoFisher Scientific as part of their SelectScreen® Biochemical Kinase Profiling Service. The LanthaScreen® Eu Kinase Binding assay format uses binding of an Alexa Fluor® conjugate or “tracer” to a kinase, which is detected by addition of a Eu-labeled anti-tag antibody. […] The degree of FRET measured in the assay is used to determine the binding of a compound.
(§1) 10 point three-fold dilution compound concentration-response curves, with a top concentration of 10 μM were generated from 10 mM stocks of compound solubilised in DMSO. All assays were performed in white, low volume Greiner 384-well plates (cat. #784207, Greiner), in a total reaction volume of 16 μL and 1% (v/v) final DMSO concentration. […] Plates were then read using a fluorescence plate reader. IC50 values were calculated using XLfit software (IDBS Ltd, Surrey, UK), with the curve fit to model number 205 (sigmoidal dose-response model).

[1] = biological target: Full length human DNAPK protein (Homo sapiens (Human), UniProt P78527); assay: DNAPK enzyme potency assay (DNA-PK enz), TR-FRET; format: biochemical; settings: arithmetic mean of two or more experiments, 18 μM ATP; for IC50: read-out: DNA-PK enz pIC50 (converted)
Source text: The following assays were used to measure the effects of the compounds described herein: a) DNAPK enzyme potency assay; b) DNAPK cellular potency assay. During the description of the assays, generally: • i. The following abbreviations have been used; DMSO=Dimethyl Sulphoxide; DTT=Dithiothreitol; EDTA=Ethylenediaminetetraacetic Acid, TR-FRET=Time Resolved Fluorescence Resonance Energy Transfer, ATP=Adenosine triphosphate, DTT=Dithiothreitol, DNA=Deoxyribonucleic acid, HEPES=(2-hydroxyethyl)-1-piperazineethanesulfonic acid • ii. […] Assay a): DNAPK Enzyme Potency Assay (DNA-PK Enz)
The inhibitory activity of compounds against DNAPK was determined by TR-FRET measuring a fluorescent labelled peptide substrate converting to a phosphorylated product. Fluorescently tagged peptide substrate were purchased from Thermo Fisher Scientific. 12 point half-log compound concentration-response curves, with a top concentration of 100 μM were generated from 10 mM stocks of compound solubilised in DMSO using an Echo 555 (Labcyte Inc., Sunnyvale, CA). All assays were preformed in white Greiner 1536 well low volume plates (Greiner Bio-One, UK), in a total reaction volume of 3 μL and 1% (v/v) final DMSO concentration. Enzymes and substrates were added separately to the compound plates and incubated at room temperature. The kinase reaction was then quenched by the addition of 3 μL of stop buffer. Stopped assay plates were read using a BMG Pherastar. IC50 values were calculated using a Genedata Screener® software (Genedata, Inc., Basel, Switzerland).
Full length human DNAPK protein was purified from HeLa cell extract by ion exchange. Initially DNAPK protein was incubated with compound for 30 minutes at room temperature in reaction buffer (50 mM Hepes pH 7.5, 0.01% Brij-35, 10 mM MgCl2, 1 mM EGTA, 1 mM DTT, […] Calf Thymus DNA). The reaction was then initiated by the addition of ATP and fluorescently tagged peptide substrate (Fluorescein-[…], Thermo Fisher Scientific). […] The reaction was incubated for a further hour and the plates were read on a BMG Pherastar.
Data was analysed and IC50 values were calculated using Genedata Screener® software (Genedata, Inc., Basel, Switzerland).

JAK1 = JAK1 (Homo sapiens (Human), UniProt P23458); assay: JAK1 enzyme assay (Z'-LYTE); format: biochemical; settings: 75 μM ATP, arithmetic mean of two or more experiments; for IC50: read-out: JAK1 enz pIC50 (converted)
Experimental: The inhibitory activity of compounds against AURKA, AURKB, JAK1, JAK2 and JAK3 was determined in Z′-LYTE® assays run by ThermoFisher Scientific as part of their SelectScreen® Biochemical Kinase Profiling Service. The Z′-LYTE® biochemical assay format employs a fluorescence-based, coupled-enzyme format and is based on the differential sensitivity of phosphorylated and non-phosphorylated peptides to proteolytic cleavage. The peptide substrate is labeled with two fluorophores—one at each end—that make up a FRET pair. In the primary reaction, the kinase transfers the gamma-phosphate of ATP to a single tyrosine, serine or threonine residue in a synthetic FRET-peptide. In the secondary reaction, a site-specific protease recognises and cleaves non-phosphorylated FRET-peptides. Phosphorylation of FRET-peptides suppresses cleavage by the Development Reagent. Cleavage disrupts FRET between the donor (i.e., coumarin) and acceptor (i.e., fluorescein) fluorophores on the FRET-peptide, whereas uncleaved, phosphorylated FRET-peptides maintain FRET. A ratiometric method, which calculates the ratio (the Emission Ratio) of donor emission to acceptor emission after excitation of the donor fluorophore at 400 nm, is used to quantitate reaction progress. Both cleaved and uncleaved FRET-peptides contribute to the fluorescence signals and therefore to the Emission Ratio. The extent of phosphorylation of the FRET-peptide can be calculated from the Emission Ratio.
as §1, with “black, non-binding,” for “white,”, “Corning” for “Greiner”, “#4514, Corning),” for “#784207, Greiner),”, “10” for “16”, “The kinase reaction was” for “Plates were”, “quenched by the addition of 5 μL of Development Reagent (ThermoFisher Scientific proprietary). […]” for “read using a fluorescence plate reader.”
JAK1: The 2×JAK/Tyr 06 (ThermoFisher Scientific proprietary) mixture was prepared in 50 mM HEPES pH 6.5, 0.01% BRIJ-35, 10 mM MgCl2, 1 mM EGTA, 0.02% NaN3. […] After the 1 hour Kinase Reaction incubation, 5 μL of a 1:128 dilution of Development Reagent was added.

Sequence of JAK1 (P23458 whole entry): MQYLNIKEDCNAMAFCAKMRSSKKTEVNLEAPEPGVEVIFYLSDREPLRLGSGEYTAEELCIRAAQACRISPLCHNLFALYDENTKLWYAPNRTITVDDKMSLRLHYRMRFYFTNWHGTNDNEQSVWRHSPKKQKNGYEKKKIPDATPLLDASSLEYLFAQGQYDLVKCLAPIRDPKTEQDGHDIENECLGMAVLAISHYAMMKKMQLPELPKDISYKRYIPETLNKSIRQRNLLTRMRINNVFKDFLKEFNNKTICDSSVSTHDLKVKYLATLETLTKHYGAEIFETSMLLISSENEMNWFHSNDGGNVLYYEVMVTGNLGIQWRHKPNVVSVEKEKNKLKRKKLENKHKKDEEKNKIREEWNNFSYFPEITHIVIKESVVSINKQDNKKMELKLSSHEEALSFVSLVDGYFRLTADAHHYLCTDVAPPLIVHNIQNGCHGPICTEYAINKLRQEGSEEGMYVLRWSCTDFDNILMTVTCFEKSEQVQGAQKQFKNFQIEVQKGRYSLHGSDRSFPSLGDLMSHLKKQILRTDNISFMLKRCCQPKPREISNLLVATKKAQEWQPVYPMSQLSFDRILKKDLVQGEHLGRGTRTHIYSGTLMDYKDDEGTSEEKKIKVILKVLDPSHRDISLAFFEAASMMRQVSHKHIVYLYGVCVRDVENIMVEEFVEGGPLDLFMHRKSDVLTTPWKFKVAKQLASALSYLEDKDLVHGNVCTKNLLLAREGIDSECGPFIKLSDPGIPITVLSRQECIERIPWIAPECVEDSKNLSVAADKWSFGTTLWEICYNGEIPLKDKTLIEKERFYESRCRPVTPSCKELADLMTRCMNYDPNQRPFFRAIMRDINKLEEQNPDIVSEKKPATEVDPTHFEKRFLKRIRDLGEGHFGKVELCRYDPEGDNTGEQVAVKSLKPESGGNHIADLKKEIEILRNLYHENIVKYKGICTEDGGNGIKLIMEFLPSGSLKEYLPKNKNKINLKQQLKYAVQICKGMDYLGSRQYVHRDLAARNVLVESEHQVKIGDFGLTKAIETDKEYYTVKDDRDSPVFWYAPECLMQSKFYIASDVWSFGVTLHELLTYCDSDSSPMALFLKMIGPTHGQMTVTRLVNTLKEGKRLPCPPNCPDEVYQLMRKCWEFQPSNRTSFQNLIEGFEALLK
Sequence of TTK (P33981 whole entry): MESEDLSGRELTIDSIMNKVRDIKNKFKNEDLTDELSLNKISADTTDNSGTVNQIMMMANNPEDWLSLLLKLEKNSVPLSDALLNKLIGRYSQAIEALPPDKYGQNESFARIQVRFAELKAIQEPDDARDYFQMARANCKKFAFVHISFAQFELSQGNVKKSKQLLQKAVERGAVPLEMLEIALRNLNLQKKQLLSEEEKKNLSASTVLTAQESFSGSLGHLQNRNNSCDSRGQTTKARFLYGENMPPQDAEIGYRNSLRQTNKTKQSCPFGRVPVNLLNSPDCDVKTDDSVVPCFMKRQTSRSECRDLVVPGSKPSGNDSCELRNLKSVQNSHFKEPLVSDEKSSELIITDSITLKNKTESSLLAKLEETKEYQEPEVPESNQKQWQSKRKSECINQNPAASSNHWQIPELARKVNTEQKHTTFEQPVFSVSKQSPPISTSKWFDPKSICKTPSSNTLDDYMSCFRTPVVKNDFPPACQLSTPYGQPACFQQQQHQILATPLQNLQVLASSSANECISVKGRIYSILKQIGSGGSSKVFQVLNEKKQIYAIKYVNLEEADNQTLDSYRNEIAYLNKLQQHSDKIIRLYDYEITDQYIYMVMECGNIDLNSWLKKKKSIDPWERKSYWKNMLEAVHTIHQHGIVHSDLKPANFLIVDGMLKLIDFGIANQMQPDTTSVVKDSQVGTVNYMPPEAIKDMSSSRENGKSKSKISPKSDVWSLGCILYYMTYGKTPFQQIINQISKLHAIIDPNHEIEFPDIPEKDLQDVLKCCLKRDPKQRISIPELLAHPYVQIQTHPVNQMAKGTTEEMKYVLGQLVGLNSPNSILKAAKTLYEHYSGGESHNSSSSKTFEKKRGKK

Structure (SMILES): Cc1cc2nnccc2cc1Nc1ncc2c(n1)n([C@H]1CCOC1)c(=O)n2C [Example 21, (S)-7-methyl-2-((7-methylcinnolin-6-yl)amino)-9-(tetrahydrofuran-3-yl)-7,9-dihydro-8H-purin-8-one]
TTK enz pIC50 (TTK): 6.4
DNA-PK enz pIC50 [1]: >10
JAK1 enz pIC50 (JAK1): <5

Structure (SMILES): Cc1cc2nccnc2cc1Nc1ncc2c(n1)n([C@H]1CC[C@](C)(O)CC1)c(=O)n2C [Example 18, 9-((1r,4r)-4-hydroxy-4-methylcyclohexyl)-7-methyl-2-((7-methylquinoxalin-6-yl)amino)-7,9-dihydro-8H-purin-8-one]
IC50 (TTK): 1580 nM
IC50 [1]: 0.251 nM
IC50 (JAK1): > 10000 nM

Structure (SMILES): Cc1cc2nnccc2cc1Nc1ncc2c(n1)n([C@H]1CC[C@@H](O)CC1)c(=O)n2C [Example 12, 9-((1s,4s)-4-hydroxycyclohexyl)-7-methyl-2-((7-methylcinnolin-6-yl)amino)-7,9-dihydro-8H-purin-8-one]
TTK enz pIC50 (TTK): 6.3
DNA-PK enz pIC50 [1]: >10
JAK1 enz pIC50 (JAK1): <5

Structure (SMILES): Cc1cc2nnccc2cc1Nc1ncc2c(n1)n([C@@H]1CCCOC1)c(=O)n2C [Example 25, (R)-7-methyl-2-((7-methylcinnolin-6-yl)amino)-9-(tetrahydro-2H-pyran-3-yl)-7,9-dihydro-8H-purin-8-one]
TTK enz pIC50 (TTK): 6.2
DNA-PK enz pIC50 [1]: 9.7
JAK1 enz pIC50 (JAK1): <5

Structure (SMILES): Cc1cc2ncccc2cc1Nc1ncc2c(n1)n(C1CCN(C3COC3)CC1)c(=O)n2C [Example 47, 7-methyl-2-((7-methylquinolin-6-yl)amino)-9-(1-(oxetan-3-yl)piperidin-4-yl)-7,9-dihydro-8H-purin-8-one]
TTK enz pIC50 (TTK): 5.8
DNA-PK enz pIC50 [1]: 9.0
JAK1 enz pIC50 (JAK1): <5

Structure (SMILES): CC(=O)N1CCC(n2c(=O)n(C)c3cnc(Nc4cc5nc(C)cnc5cc4C)nc32)CC1 [Example 5, 9-(1-acetylpiperidin-4-yl)-2-((3,7-dimethylquinoxalin-6-yl)amino)-7-methyl-7,9-dihydro-8H-purin-8-one]
TTK enz pIC50 (TTK): 5.3
DNA-PK enz pIC50 [1]: 9.1
JAK1 enz pIC50 (JAK1): <5

IC50 (TTK): 1260 nM
IC50 [1]: 0.501 nM
IC50 (JAK1): > 10000 nM
Structure (SMILES): Cc1cnc2cc(Nc3ncc4c(n3)n(C3CCOCC3)c(=O)n4C)c(C)cc2n1 [Example 33, 2-((2,7-dimethylquinoxalin-6-yl)amino)-7-methyl-9-(tetrahydro-2H-pyran-4-yl)-7,9-dihydro-8H-purin-8-one]

Structure (SMILES): Cc1cc2ncccc2cc1Nc1ncc2c(n1)n([C@H]1CC[C@H](O)CC1)c(=O)n2C [Example 6, 9-((1r,4r)-4-hydroxycyclohexyl)-7-methyl-2-((7-methylquinolin-6-yl)amino)-7,9-dihydro-8H-purin-8-one]
TTK enz pIC50 (TTK): 7.2
DNA-PK enz pIC50 [1]: >10
JAK1 enz pIC50 (JAK1): <5

Structure (SMILES): Cc1cc2ncccc2cc1Nc1ncc2c(n1)n([C@H]1CC[C@](C)(N)CC1)c(=O)n2C [Example 40, 9-((1r,4r)-4-amino-4-methylcyclohexyl)-7-methyl-2-((7-methylquinolin-6-yl)amino)-7,9-dihydro-8H-purin-8-one]
IC50 (TTK): 1580 nM
IC50 [1]: 0.316 nM
IC50 (JAK1): > 10000 nM

Structure (SMILES): Cc1cc2ncccc2cc1Nc1ncc2c(n1)n([C@H]1CC[C@@H](O)CC1)c(=O)n2C [Example 11, 9-((1s,4s)-4-hydroxycyclohexyl)-7-methyl-2-((7-methylquinolin-6-yl)amino)-7,9-dihydro-8H-purin-8-one]
IC50 (TTK): 398 nM
IC50 [1]: 0.158 nM
IC50 (JAK1): > 10000 nM

IC50 (TTK): 5010 nM
IC50 [1]: < 0.1 nM
IC50 (JAK1): > 10000 nM
Structure (SMILES): Cc1cnc2cc(C)c(Nc3ncc4c(n3)n(C3CCOCC3)c(=O)n4C)cc2n1 [Example 34, 2-((3,7-dimethylquinoxalin-6-yl)amino)-7-methyl-9-(tetrahydro-2H-pyran-4-yl)-7,9-dihydro-8H-purin-8-one]

Structure (SMILES): Cc1cc2nnccc2cc1Nc1ncc2c(n1)n([C@H]1CCCOC1)c(=O)n2C [Example 27, (S)-7-methyl-2-((7-methylcinnolin-6-yl)amino)-9-(tetrahydro-2H-pyran-3-yl)-7,9-dihydro-8H-purin-8-one]
TTK enz pIC50 (TTK): 6.4
DNA-PK enz pIC50 [1]: >10
JAK1 enz pIC50 (JAK1): <5

Structure (SMILES): COCCN1CCC(n2c(=O)n(C)c3cnc(Nc4cc5cccnc5cc4C)nc32)CC1 [Example 49, 9-(1-(2-methoxyethyl)piperidin-4-yl)-7-methyl-2-((7-methylquinolin-6-yl)amino)-7,9-dihydro-8H-purin-8-one]
TTK enz pIC50 (TTK): 5.7
DNA-PK enz pIC50 [1]: 8.8
JAK1 enz pIC50 (JAK1): <5

Structure (SMILES): Cc1cc2nccnc2cc1Nc1ncc2c(n1)n([C@@H]1CCOC1)c(=O)n2C [Example 24, (R)-7-methyl-2-((7-methylquinoxalin-6-yl)amino)-9-(tetrahydrofuran-3-yl)-7,9-dihydro-8H-purin-8-one]
TTK enz pIC50 (TTK): 5.6
DNA-PK enz pIC50 [1]: 9.1
JAK1 enz pIC50 (JAK1): <5

Structure (SMILES): COc1ccnc2cc(C)c(Nc3ncc4c(n3)n([C@H]3CC[C@H](O)CC3)c(=O)n4C)cc12 [Example 9, 9-((1r,4r)-4-hydroxycyclohexyl)-2-((4-methoxy-7-methylquinolin-6-yl)amino)-7-methyl-7,9-dihydro-8H-purin-8-one]
TTK enz pIC50 (TTK): 6.1
DNA-PK enz pIC50 [1]: >10
JAK1 enz pIC50 (JAK1): <5

Structure (SMILES): Cc1cc2nccnc2cc1Nc1ncc2c(n1)n([C@]1(C)CC[C@H](O)CC1)c(=O)n2C [Example 20, 9-((1s,4s)-4-hydroxy-1-methylcyclohexyl)-7-methyl-2-((7-methylquinoxalin-6-yl)amino)-7,9-dihydro-8H-purin-8-one]
TTK enz pIC50 (TTK): 6.4
DNA-PK enz pIC50 [1]: 10.0
JAK1 enz pIC50 (JAK1): <5

Structure (SMILES): CCN1CCC(n2c(=O)n(C)c3cnc(Nc4cc5cccnc5cc4C)nc32)CC1 [Example 50, 9-(1-ethylpiperidin-4-yl)-7-methyl-2-((7-methylquinolin-6-yl)amino)-7,9-dihydro-8H-purin-8-one]
TTK enz pIC50 (TTK): 5.2
DNA-PK enz pIC50 [1]: 8.4
JAK1 enz pIC50 (JAK1): <5
